Experimental data: ChEMBL document CHEMBL2034957, “Synthesis and antitumor evaluation of novel benzo[d]pyrrolo[2,1-b]thiazole derivatives” (Eur J Med Chem, 2012)
The source made the active and inactive calls. The calls are words filed in the database; no cut-off is given here.

Columns and labels:
CCRF-CEM [1] = experiment: Cytotoxicity against human CCRF-CEM cells after 72 hrs by XTT assay; assay type: functional, cell-based
CCRF-CEM [2] = experiment: Cytotoxicity against human taxol-resistant CCRF-CEM cells after 72 hrs by XTT assay; assay type: functional, cell-based
CCRF-CEM [3] = experiment: Cytotoxicity against human vinblastine-resistant CCRF-CEM cells after 72 hrs by XTT assay; assay type: functional, cell-based
[4] = Cytotoxicity against human H1299 cells after 72 hrs by alamar blue assay; assay type: functional, cell-based; conditions: NCI-H1299, 72 h
PC-3 = experiment: Cytotoxicity against human PC3 cells after 72 hrs by alamar blue assay; assay type: functional, cell-based; conditions: PC-3, 72 h
[5] = Cytotoxicity against human OECM1 cells after 72 hrs by alamar blue assay; assay type: functional, cell-based; conditions: OECM1, 72 h
[6] = Cytotoxicity against human U87 cells after 72 hrs by alamar blue assay; assay type: functional, cell-based, U-87MG ATCC; conditions: U-87 MG
Nucleic Acid = experiment: Induction of Escherichia coli pEGFP-N1 DNA interstrand cross-linking at 1 to 20 uM after 2 hrs using ethidium bromide staining by alkaline agarose gel shift assay; assay type: nucleic-acid assay
CCRF-CEM [7] = experiment: Ratio of IC50 for human taxol-resistant CCRF-CEM cells to IC50 for human CCRF-CEM cells; assay type: functional
CCRF-CEM [8] = experiment: Ratio of IC50 for human vinblastine-resistant CCRF-CEM cells to IC50 for human CCRF-CEM cells; assay type: functional
MX1 = experiment: Cytotoxicity against human MX1 cells after 72 hrs by SRB assay; assay type: functional, cell-based; conditions: MX1, 72 h
HCT-116 = experiment: Cytotoxicity against human HCT116 cells after 72 hrs by SRB assay; assay type: functional, cell-based; conditions: HCT-116, 72 h
[9] = Cell cycle arrest in human H1299 cells assessed as reduction in G1 phase cells at 25 uM at 24 hrs by propidium iodideee-based flow cytometry; assay type: functional; conditions: NCI-H1299
[10] = Cell cycle arrest in human H1299 cells assessed as accumulation of G1 phase cells at 25 uM at 48 hrs by propidium iodideee-based flow cytometry; assay type: functional; conditions: NCI-H1299
Mus musculus [11] = experiment: Toxicity in athymic nude mouse assessed as weight loss at 20 mg/kg, iv administered q2d for 3 days followed by 25 mg/kg, iv q2d for 4 days; assay type: organism-based; conditions: in vivo
Mus musculus [12] = experiment: Toxicity in athymic nude mouse assessed as weight loss at 10 mg/kg, iv administered q2d for 4 days; assay type: organism-based; parameters: dose 10 mg/kg, route intravenous; conditions: in vivo, 96 h
Mus musculus [13] = experiment: Toxicity in athymic nude mouse assessed as weight loss at 30 mg/kg, iv administered q2d for 4 days; assay type: organism-based; parameters: dose 30 mg/kg, route intravenous; conditions: in vivo, 96 h

Compound	IC50 (CCRF-CEM [1]) [nM]	IC50 (CCRF-CEM [2]) [nM]	IC50 (CCRF-CEM [3]) [nM]	IC50 [4] [nM]	IC50 (PC-3) [nM]	IC50 [5] [nM]	IC50 [6] [nM]	Ratio IC50 (CCRF-CEM [7])	Ratio IC50 (CCRF-CEM [8])	also measured
COc1ccc(-c2c(CO)c(CO)c3sc4ccccc4n23)cc1	1130	2170	2630	9940	8810	5000	18100	1.9	2.3	Activity (Nucleic Acid): Active
CCNC(=O)OCc1c(COC(=O)NCC)c2sc3ccccc3n2c1-c1ccc(F)c(Cl)c1	380	–	–	–	–	–	–	–	–	–
Cc1c(CO)c(CO)c2sc3ccccc3n12	970	1880	1860	–	–	–	–	1.93	1.91	IC50 (MX1): 7100 nM; IC50 (HCT-116): 4440 nM
CC(C)NC(=O)OCc1c(COC(=O)NC(C)C)c2sc3ccccc3n2c1C1CC1	100	730	900	20400	13400	9670	45500	7.3	9	–
COc1cc(-c2c(CO)c(CO)c3sc4ccccc4n23)cc(OC)c1OC	4030	–	–	–	–	–	–	–	–	–
CCNC(=O)OCc1c(COC(=O)NCC)c2sc3ccccc3n2c1C1CC1	170	680	540	20600	24200	26300	74500	4.01	3.18	–
CCNC(=O)OCc1c(COC(=O)NCC)c2sc3ccccc3n2c1-c1cc(OC)c(OC)c(OC)c1	320	–	–	–	–	–	–	–	–	–
OCc1c(CO)c2sc3ccccc3n2c1-c1ccc(Cl)c(Cl)c1	1040	–	–	–	–	–	–	–	–	–
OCc1c(CO)c2sc3ccccc3n2c1-c1ccc(Cl)cc1	2610	5220	4090	12400	20400	14600	20700	2	1.56	IC50 (MX1): 10400 nM; IC50 (HCT-116): 9260 nM; Activity [9]: Active; Activity [10]: Active; Activity (Nucleic Acid): Active
CCNC(=O)OCc1c(COC(=O)NCC)c2sc3ccccc3n2c1-c1ccc(OC)cc1	190	370	420	8850	17900	9390	29500	1.9	2.2	Activity (Nucleic Acid): Active
CC(C)NC(=O)OCc1c(COC(=O)NC(C)C)c2sc3ccccc3n2c1-c1ccc(F)c(Cl)c1	500	–	–	–	–	–	–	–	–	–
OCc1c(CO)c2sc3ccccc3n2c1C1CC1	970	2310	2440	13300	10700	7120	28700	2.37	2.51	–
CC(=O)O[C@H]1C(=O)[C@@]2(C)[C@H]([C@H](OC(=O)c3ccccc3)[C@]3(O)C[C@H](OC(=O)[C@H](O)[C@@H](NC(=O)c4ccccc4)c4ccccc4)C(C)=C1C3(C)C)[C@]1(OC(C)=O)CO[C@@H]1C[C@@H]2O [PACLITAXEL]	–	–	–	–	–	–	–	358	980	–
CCNC(=O)OCc1c(COC(=O)NCC)c2sc3ccccc3n2c1C	330	450	430	–	–	–	–	1.3	1.3	–
Cc1c(COC(=O)NC(C)C)c(COC(=O)NC(C)C)c2sc3ccccc3n12	130	220	250	9700	–	–	–	1.69	1.92	IC50 (MX1): 130 nM; IC50 (HCT-116): 970 nM
COc1cc(-c2c(COC(=O)NC(C)C)c(COC(=O)NC(C)C)c3sc4ccccc4n23)cc(OC)c1OC	1050	–	–	–	–	–	–	–	–	–
CC(C)NC(=O)OCc1c(COC(=O)NC(C)C)c2sc3ccccc3n2c1-c1ccc(F)cc1	50	160	190	33000	24200	11900	53500	3.2	3.8	IC50 (MX1): 620 nM; IC50 (HCT-116): 350 nM; Activity (Mus musculus [11]): 20%; Activity (Mus musculus [12]): 20%; Activity (Mus musculus [13]): 20%; Activity (Nucleic Acid): Active
CCNC(=O)OCc1c(COC(=O)NCC)c2sc3ccccc3n2c1-c1ccc(OC)c(OC)c1	490	–	–	–	–	–	–	–	–	–
CC(C)NC(=O)OCc1c(COC(=O)NC(C)C)c2sc3ccccc3n2c1-c1ccc(Cl)c(Cl)c1	2290	–	–	–	–	–	–	–	–	–
OCc1c(CO)c2sc3ccccc3n2c1-c1ccc(F)cc1	1060	2560	3720	9270	13800	6030	15500	2.41	3.5	IC50 (MX1): 2770 nM; IC50 (HCT-116): 9590 nM; Activity (Nucleic Acid): Active
COc1ccc(-c2c(COC(=O)NC(C)C)c(COC(=O)NC(C)C)c3sc4ccccc4n23)cc1	140	170	250	8190	17500	7230	60900	1.17	1.47	Activity (Nucleic Acid): Active
OCc1c(CO)c2sc3ccccc3n2c1-c1ccc(F)c(Cl)c1	3090	–	–	–	–	–	–	–	–	–
CCNC(=O)OCc1c(COC(=O)NCC)c2sc3ccccc3n2c1-c1ccc(Cl)c(Cl)c1	380	–	–	–	–	–	–	–	–	–
COc1ccc(-c2c(CO)c(CO)c3sc4ccccc4n23)cc1OC	1820	–	–	–	–	–	–	–	–	–
CC(C)NC(=O)OCc1c(COC(=O)NC(C)C)c2sc3ccccc3n2c1-c1ccc(F)c(F)c1	330	190	300	30800	29600	15100	74800	0.57	0.9	IC50 (MX1): 1000 nM; IC50 (HCT-116): 410 nM
OCc1c(CO)c2sc3ccccc3n2c1-c1ccc(F)c(F)c1	190	190	280	21400	15200	8480	17400	1	1.47	–
COc1ccc(-c2c(COC(=O)NC(C)C)c(COC(=O)NC(C)C)c3sc4ccccc4n23)cc1OC	110	–	–	–	–	–	–	–	–	–
CCNC(=O)OCc1c(COC(=O)NCC)c2sc3ccccc3n2c1-c1ccc(F)c(F)c1	210	340	310	10300	19300	14600	38500	1.61	1.47	IC50 (MX1): 1490 nM; IC50 (HCT-116): 1100 nM
CC[C@]1(O)C[C@@H]2CN(CCc3c([nH]c4ccccc34)[C@@](C(=O)OC)(c3cc4c(cc3OC)N(C)[C@H]3[C@@](O)(C(=O)OC)[C@H](OC(C)=O)[C@]5(CC)C=CCN6CC[C@]43[C@@H]65)C2)C1 [VINBLASTINE]	–	–	–	–	–	–	–	106	680	–
